Measured values published in PubChem BioAssay AID2060888 (Molecular Pharmacology Branch, DTP, NCI, 2025).

System: 695427-040-R-J1-PDC complex spheroid viability
Experiment: Anticancer human tumor 695427-040-R-J1-PDC patient-derived colon adenocarcinoma cell line growth inhibition [RAS]
Conditions: for IC50: curve of first compound; for viability, T/C: stronger effect = lower value
In short: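 Agents were tested in combination matrices in half-log decrements from a top concentration at or near clinical Cmax (10 microM if undetermined). Targets were multi-cell spheroids of tumour lines plus HUVEC and MSC stromal cells.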

[1] = second compound 0.00316 µM, first compound 0.0316 µM
[2] = second compound 0.00316 µM, first compound 0.1 µM
[3] = second compound 0.00316 µM, first compound 0.316 µM
[4] = second compound 0.00316 µM, first compound 1 µM
[5] = second compound 0.00316 µM, first compound 3.16 µM
[6] = second compound 0.00316 µM, first compound 10 µM
[7] = second compound 0.01 µM, first compound 0.0316 µM
[8] = second compound 0.01 µM, first compound 0.1 µM
[9] = second compound 0.01 µM, first compound 0.316 µM
[10] = second compound 0.01 µM, first compound 1 µM
[11] = second compound 0.01 µM, first compound 3.16 µM
[12] = second compound 0.01 µM, first compound 10 µM
[13] = second compound 0.0316 µM, first compound 0.0316 µM
[14] = second compound 0.0316 µM, first compound 0.1 µM
[15] = second compound 0.0316 µM, first compound 0.316 µM
[16] = second compound 0.0316 µM, first compound 1 µM
[17] = second compound 0.0316 µM, first compound 3.16 µM
[18] = second compound 0.0316 µM, first compound 10 µM
[19] = second compound 0.1 µM, first compound 0.0316 µM
[20] = second compound 0.1 µM, first compound 0.1 µM
[21] = second compound 0.1 µM, first compound 0.316 µM
[22] = second compound 0.1 µM, first compound 1 µM
[23] = second compound 0.1 µM, first compound 3.16 µM
[24] = second compound 0.1 µM, first compound 10 µM
[25] = second compound 0.316 µM, first compound 0.0316 µM
[26] = second compound 0.316 µM, first compound 0.1 µM
[27] = second compound 0.316 µM, first compound 0.316 µM
[28] = second compound 0.316 µM, first compound 1 µM
[29] = second compound 0.316 µM, first compound 3.16 µM
[30] = second compound 0.316 µM, first compound 10 µM
[31] = second compound 1 µM, first compound 0.0316 µM
[32] = second compound 1 µM, first compound 0.1 µM
[33] = second compound 1 µM, first compound 0.316 µM
[34] = second compound 1 µM, first compound 1 µM
[35] = second compound 1 µM, first compound 3.16 µM
[36] = second compound 1 µM, first compound 10 µM
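Also: viability read after seven days of drug exposure.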
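For viability, T/C in this document: 100% = DMSO vehicle control viability.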

## CC1(O)CCCC1n1c(=O)c(C(F)F)cc2cnc(NC3CCN(S(C)(=O)=O)CC3)nc21 (centres undefined) + C=CC(=O)N1CCN(c2nc(OCC3CCCN3C)nc3c(F)c(-c4nc(N)cc(C)c4C(F)(F)F)c(Cl)cc23)C(C)C1
Second compound 0.00316 µM
  IC50: > 10 µM
Second compound 0.01 µM
  IC50: > 10 µM
Second compound 0.0316 µM
  IC50: > 10 µM
Second compound 0.1 µM
  IC50: > 10 µM
Second compound 0.316 µM
  IC50: > 10 µM
Second compound 1 µM
  IC50: 8.82 µM
[1]
  viability, T/C: 95.4%
[2]
  viability, T/C: 93.5%
[3]
  viability, T/C: 101%
[4]
  viability, T/C: 111%
[5]
  viability, T/C: 116%
[6]
  viability, T/C: 59.6%
[7]
  viability, T/C: 109%
[8]
  viability, T/C: 91.8%
[9]
  viability, T/C: 104%
[10]
  viability, T/C: 109%
[11]
  viability, T/C: 124%
[12]
  viability, T/C: 58.1%
[13]
  viability, T/C: 99.5%
[14]
  viability, T/C: 96%
[15]
  viability, T/C: 107%
[16]
  viability, T/C: 110%
[17]
  viability, T/C: 122%
[18]
  viability, T/C: 57.6%
[19]
  viability, T/C: 94.4%
[20]
  viability, T/C: 95.3%
[21]
  viability, T/C: 107%
[22]
  viability, T/C: 112%
[23]
  viability, T/C: 126%
[24]
  viability, T/C: 56.4%
[25]
  viability, T/C: 99.6%
[26]
  viability, T/C: 102%
[27]
  viability, T/C: 97.5%
[28]
  viability, T/C: 120%
[29]
  viability, T/C: 124%
[30]
  viability, T/C: 60.3%
[31]
  viability, T/C: 97.5%
[32]
  viability, T/C: 94.5%
[33]
  viability, T/C: 101%
[34]
  viability, T/C: 118%
[35]
  viability, T/C: 120%
[36]
  viability, T/C: 43.1%

## CCC(CC)c1cc(NC2CCC(N)C2)n2nccc2n1 (centres undefined) + C=CC(=O)N1CCN(c2nc(OCC3CCCN3C)nc3c(F)c(-c4nc(N)cc(C)c4C(F)(F)F)c(Cl)cc23)C(C)C1
Second compound 0.00316 µM
  IC50: 1.92 µM
Second compound 0.01 µM
  IC50: 2.07 µM
Second compound 0.0316 µM
  IC50: 1.95 µM
Second compound 0.1 µM
  IC50: 1.87 µM
Second compound 0.316 µM
  IC50: 1.95 µM
Second compound 1 µM
  IC50: 1.8 µM
[1]
  viability, T/C: 93.3%
[2]
  viability, T/C: 94.8%
[3]
  viability, T/C: 109%
[4]
  viability, T/C: 106%
[5]
  viability, T/C: 9.52%
[6]
  viability, T/C: 12.3%
[7]
  viability, T/C: 105%
[8]
  viability, T/C: 96.1%
[9]
  viability, T/C: 119%
[10]
  viability, T/C: 116%
[11]
  viability, T/C: 15.3%
[12]
  viability, T/C: 11.1%
[13]
  viability, T/C: 105%
[14]
  viability, T/C: 99.4%
[15]
  viability, T/C: 105%
[16]
  viability, T/C: 101%
[17]
  viability, T/C: 13%
[18]
  viability, T/C: 11.9%
[19]
  viability, T/C: 100%
[20]
  viability, T/C: 98.2%
[21]
  viability, T/C: 116%
[22]
  viability, T/C: 94.4%
[23]
  viability, T/C: 13.1%
[24]
  viability, T/C: 12.1%
[25]
  viability, T/C: 89.4%
[26]
  viability, T/C: 95.8%
[27]
  viability, T/C: 105%
[28]
  viability, T/C: 111%
[29]
  viability, T/C: 12.4%
[30]
  viability, T/C: 14.7%
[31]
  viability, T/C: 89.9%
[32]
  viability, T/C: 97.2%
[33]
  viability, T/C: 105%
[34]
  viability, T/C: 90.9%
[35]
  viability, T/C: 7.42%
[36]
  viability, T/C: 13.8%
